Test results reported in patent publication US20260258003A1, “SLACK-ACTIVATING COMPOUNDS AND THEIR MEDICAL USE” (Johann Wolfgang Goethe-Universität Frankfurt am Main, priority 2023, published 2026).

Experiments:
[1] = tested on: 44 targets; assay: SafetyScreen44 panel (Eurofins), whole panel; assay type: binding, mostly human; conditions: 10 μM, out of 44 targets
Experimental: (§1) Compound enzyme inhibition effect was calculated as a % inhibition of control enzyme activity. […] Measurements were performed in duplicate.

[2] = target: T1, serotonin transporter (SET) (Homo sapiens, UniProt P31645); assay: SafetyScreen44 binding; conditions: substantial = higher than 50%
T1 construct: Eurofins SafetyScreen44

[3] = tested on: voltage-gated (KV) potassium channel; assay: SafetyScreen44 binding; parameters: species or system rat; conditions: 10 μM
Experimental: as §1

[4] = tested on: motor function of mice; assay: Accelerating rotarod test (motor function); assay type: in vivo; conditions: dose ≥0.39 mg/kg i.p.
Experimental: (§2) Further studies were conducted to assess the in vivo efficacy of Compound 6 and Compound 10 in mice. In detail, experiments were performed in 8 to 16 weeks old C57BL/6N mice (Charles River, Sulzfeld, Germany) and animals with a genetic deletion of Slack (Slack^−/− mice^27) of either sex. Animals were housed on a 12 h light/dark cycle with access to food and water ad libitum. All experiments adhered to the guidelines of the International Association for the Study of Pain and to the ARRIVE (Animal Research: Reporting on In Vivo Experiments) guidelines, and were approved by and conducted in accordance with the regulations of the local Animal Welfare authorities (Regierungspräsidium Darmstadt, Germany). All behavioral studies were conducted during the light cycle of the day at room temperature (20-24° C.) by an observer blinded for the treatment of the animals and/or their genotype.
(§3) Accelerating rotarod and vertical pole test were performed as follows: Mice were placed on a rotarod treadmill (Ugo Basile, Italy) with increasing speed (4-40 rpm over 300 s), and were trained for 4-5 consecutive days. Only mice reaching the 300 seconds without falling off were included in the experiment. On the testing day, compounds were i.p. administered in a vehicle composed of 0.9% saline (Sigma-Aldrich) containing 10% 2-hydroxypropyl-β-cyclodextrine (ITW Reagents) and after 15 min the latency to fall off the accelerating rotarod was measured. Immediately thereafter, mice were placed head-upward on the top of a vertical pole with a rough surface (diameter 1 cm, height 40 cm) and the time until animals reached the ground was recorded (cut-off time 20 s). Means out of three trials for each time point were calculated for further analysis.

[5] = In vivo pharmacokinetic study, plasma and brain levels by LC-MS; parameters: species or system mice; conditions: mice, 1 mg/kg i.p., cassette dosing, plasma
Experimental: The compounds pharmacokinetic properties were examined in vivo by administering the compounds intraperitoneally (i.p.) at 1 mg/kg in mice, and determining plasma and brain levels over 8 h by LC-MS measurements.
The pharmacokinetic study was performed by Pharmacelsus (Saarbrücken, Germany). In total 27 male C57BL/6 mice (8 weeks old, 23-31 g body weight, purchased from Janvier Labs, France) were used. The animals were housed in a temperature-controlled room (20-24° C.) and maintained in a 12 h light/dark cycle. Food and water were available ad libitum. All experimental procedures were approved by and conducted in accordance with the regulations of the local Animal Welfare authorities (Landesamt für Gesundheit und Verbraucherschutz, Abteilung Lebensmittel-und Veterinärwesen, Saarbrücken).
The animals were divided into 3 groups (9 mice/group) and a cassette dosing was performed, in which the mice received a single dose of 1 mg/kg body weight of 3-4 compounds (dissolved in 0.9% NaCl containing 20% cyclodextrine) i.p. simultaneously. From each animal 2 blood samples were collected from the retrobulbar venous plexus under short isoflurane anesthesia (at 0.25 h and 0.5 h from 3 mice; at 1 h and 2 h from 3 mice; and at 4 h and 8 h from 3 mice). Li-heparin was used as anticoagulant. Plasma samples were obtained by centrifugation for 10 min at 3000× g and 4° C. Immediately after the last blood sample the animal was sacrificed by cervical dislocation and the brain was removed and frozen in liquid nitrogen. Plasma and brain samples were stored at −80° C. until LC-MS analysis.
For all other compounds, the HPLC system consisted of a U-HPLC pump (Accela) and an AS Open auto sampler (Thermo Fisher Scientific, USA), and mass spectrometry was performed on a Q Exactive (Orbitrap) accurate mass spectrometer equipped with a heated electrospray (H-ESI) interface (Thermo Fisher Scientific, USA) connected to a PC running the standard software Chromeleon 7.2. For all compounds, the HPLC pump flow rate was set to 600 μl/min and the compounds were separated on an analytical column with a suitable pre-column. The pharmacokinetic analysis was performed applying a non-compartment model using the Kinetica 5.0 software (Thermo Scientific, Waltham, USA). All given parameters were obtained by trapezoid area calculation.

[6] = tested on: motor function of mice; assay: Vertical pole test (motor function); assay type: in vivo; conditions: dose ≥0.39 mg/kg i.p.
Experimental: as §2, §3

[7] = tested on: chloroquine-induced scratching behavior of mice; assay: Chloroquine-induced acute itch (scratching) model, systemic treatment; assay type: in vivo; conditions: systemic administration of a low dose; preliminary experiments, data not shown
Experimental: as §2
Acute itch behavior of the mice was monitored using a histamine-based, chloroquine-based and SLIGRL-based acute itch behavior model. In these models, three to four days before the experiment day, the fur on the dorsolateral aspect of the neck was shaved under brief isoflurane anesthesia. On the testing day, mice were habituated for 30 min in separate plexiglass cylinders (30 cm diameter). Compounds were dissolved in 0.9% saline containing 10% 2-hydroxypropyl-β-cyclodextrine and i.p. administered in a volume of maximal 200 μL. 15 min thereafter, the pruritogens chloroquine (200 μg), SLIGRL (100 μg) or histamine (800 μg), all dissolved in 0.9% saline (20 μL), were injected subcutaneously into the nape of the neck. Numbers of scratching bouts directed to the nape of the neck were assessed over 30 min by videotaping.

[8] = target: T2, norepinephrine transporter (NET) (Homo sapiens, UniProt P23975); assay: SafetyScreen44 binding; conditions: substantial = higher than 50%
T2 construct: Eurofins SafetyScreen44

[9] = target: T3, serotonin 5-HT2A receptor (Homo sapiens, UniProt P28223); assay: SafetyScreen44 binding; conditions: substantial = higher than 50%
T3 construct: Eurofins SafetyScreen44
Experimental: as §1

[10] = target: T4, serotonin 5-HT2B receptor (Homo sapiens, UniProt P41595); assay: SafetyScreen44 binding; conditions: substantial = higher than 50%
T4 construct: Eurofins SafetyScreen44
Experimental: as §1

[11] = target: T5, human ether-à-go-go (hERG) potassium channel (Homo sapiens, UniProt Q12809); assay: SafetyScreen44 binding; conditions: 10 μM
T5 construct: Eurofins SafetyScreen44
Experimental: as §1

T5 sequence (Q12809 whole entry): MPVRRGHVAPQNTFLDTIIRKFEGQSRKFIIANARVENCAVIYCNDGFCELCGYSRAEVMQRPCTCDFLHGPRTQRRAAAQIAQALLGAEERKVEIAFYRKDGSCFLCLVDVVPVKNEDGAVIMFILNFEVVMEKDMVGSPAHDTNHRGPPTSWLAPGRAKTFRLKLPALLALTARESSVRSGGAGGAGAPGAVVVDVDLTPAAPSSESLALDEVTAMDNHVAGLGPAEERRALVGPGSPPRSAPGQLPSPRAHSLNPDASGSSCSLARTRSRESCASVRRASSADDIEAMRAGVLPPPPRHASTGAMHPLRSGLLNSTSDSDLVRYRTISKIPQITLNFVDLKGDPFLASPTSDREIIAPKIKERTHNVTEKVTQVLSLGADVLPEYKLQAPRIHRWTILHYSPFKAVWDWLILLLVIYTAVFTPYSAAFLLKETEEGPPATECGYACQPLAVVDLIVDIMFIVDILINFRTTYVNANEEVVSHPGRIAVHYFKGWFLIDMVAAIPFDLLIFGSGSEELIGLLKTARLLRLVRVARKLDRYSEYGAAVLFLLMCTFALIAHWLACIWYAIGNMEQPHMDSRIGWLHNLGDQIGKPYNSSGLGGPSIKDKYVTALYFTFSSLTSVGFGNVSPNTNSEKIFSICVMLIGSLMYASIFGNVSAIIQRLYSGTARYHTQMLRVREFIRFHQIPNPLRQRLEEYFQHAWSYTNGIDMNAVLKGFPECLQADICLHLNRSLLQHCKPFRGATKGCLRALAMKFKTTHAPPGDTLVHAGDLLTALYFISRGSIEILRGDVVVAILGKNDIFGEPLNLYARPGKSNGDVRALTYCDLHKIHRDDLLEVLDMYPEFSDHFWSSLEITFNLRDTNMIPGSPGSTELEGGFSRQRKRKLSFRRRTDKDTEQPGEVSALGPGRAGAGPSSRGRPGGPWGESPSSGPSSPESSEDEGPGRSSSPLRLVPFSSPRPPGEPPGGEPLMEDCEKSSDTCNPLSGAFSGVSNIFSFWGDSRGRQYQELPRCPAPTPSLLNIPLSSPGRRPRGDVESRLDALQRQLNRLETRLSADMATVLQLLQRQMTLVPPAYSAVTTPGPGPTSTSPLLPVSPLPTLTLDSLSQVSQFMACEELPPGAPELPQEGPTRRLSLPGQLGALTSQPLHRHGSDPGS
T4 sequence (P41595 whole entry): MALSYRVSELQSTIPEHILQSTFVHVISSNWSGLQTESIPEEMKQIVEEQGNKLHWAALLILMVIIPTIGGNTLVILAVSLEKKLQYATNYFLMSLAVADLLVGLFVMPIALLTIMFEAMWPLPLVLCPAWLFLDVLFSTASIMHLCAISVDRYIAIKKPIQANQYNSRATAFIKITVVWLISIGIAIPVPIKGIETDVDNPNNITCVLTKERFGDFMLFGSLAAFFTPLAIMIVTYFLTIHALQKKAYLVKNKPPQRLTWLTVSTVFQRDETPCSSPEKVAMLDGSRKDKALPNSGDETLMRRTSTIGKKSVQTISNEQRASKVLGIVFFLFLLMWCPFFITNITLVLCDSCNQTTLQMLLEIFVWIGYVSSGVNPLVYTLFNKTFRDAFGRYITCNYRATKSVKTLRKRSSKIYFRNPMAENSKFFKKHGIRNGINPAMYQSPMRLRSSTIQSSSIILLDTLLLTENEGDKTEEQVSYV
T2 sequence (P23975 whole entry): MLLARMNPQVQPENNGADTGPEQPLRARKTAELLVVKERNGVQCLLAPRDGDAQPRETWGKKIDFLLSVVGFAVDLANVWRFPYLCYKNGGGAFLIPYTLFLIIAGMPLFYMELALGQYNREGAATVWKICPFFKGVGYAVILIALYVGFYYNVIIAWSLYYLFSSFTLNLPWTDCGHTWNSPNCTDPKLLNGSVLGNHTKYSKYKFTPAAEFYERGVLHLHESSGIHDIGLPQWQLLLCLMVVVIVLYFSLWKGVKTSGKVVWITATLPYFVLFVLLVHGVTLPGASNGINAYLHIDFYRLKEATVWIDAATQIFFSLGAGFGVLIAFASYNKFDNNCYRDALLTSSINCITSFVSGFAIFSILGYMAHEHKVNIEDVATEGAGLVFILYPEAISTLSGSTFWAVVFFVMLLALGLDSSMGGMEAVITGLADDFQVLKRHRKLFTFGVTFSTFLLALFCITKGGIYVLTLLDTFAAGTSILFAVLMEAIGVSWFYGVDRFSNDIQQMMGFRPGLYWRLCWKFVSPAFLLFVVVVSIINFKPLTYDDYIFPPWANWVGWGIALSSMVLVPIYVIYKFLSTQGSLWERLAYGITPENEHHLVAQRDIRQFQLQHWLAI
T1 sequence (P31645 whole entry): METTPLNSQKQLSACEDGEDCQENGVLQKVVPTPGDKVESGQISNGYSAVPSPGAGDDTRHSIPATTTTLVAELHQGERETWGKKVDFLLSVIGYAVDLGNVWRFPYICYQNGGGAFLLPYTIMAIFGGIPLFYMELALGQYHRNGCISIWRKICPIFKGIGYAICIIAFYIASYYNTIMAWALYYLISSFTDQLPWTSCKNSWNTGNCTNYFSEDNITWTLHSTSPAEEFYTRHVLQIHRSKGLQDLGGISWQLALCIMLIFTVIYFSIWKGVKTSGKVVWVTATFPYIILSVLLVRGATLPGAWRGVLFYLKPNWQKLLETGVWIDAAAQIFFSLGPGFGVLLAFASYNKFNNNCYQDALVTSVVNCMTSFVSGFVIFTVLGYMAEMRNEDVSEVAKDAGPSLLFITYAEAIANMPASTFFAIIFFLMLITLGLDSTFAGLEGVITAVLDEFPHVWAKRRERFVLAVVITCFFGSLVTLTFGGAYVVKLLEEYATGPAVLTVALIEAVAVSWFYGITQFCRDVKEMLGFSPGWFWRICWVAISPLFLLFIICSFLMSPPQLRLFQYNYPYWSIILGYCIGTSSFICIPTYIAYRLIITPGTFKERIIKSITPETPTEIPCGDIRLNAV
T3 sequence (P28223 whole entry): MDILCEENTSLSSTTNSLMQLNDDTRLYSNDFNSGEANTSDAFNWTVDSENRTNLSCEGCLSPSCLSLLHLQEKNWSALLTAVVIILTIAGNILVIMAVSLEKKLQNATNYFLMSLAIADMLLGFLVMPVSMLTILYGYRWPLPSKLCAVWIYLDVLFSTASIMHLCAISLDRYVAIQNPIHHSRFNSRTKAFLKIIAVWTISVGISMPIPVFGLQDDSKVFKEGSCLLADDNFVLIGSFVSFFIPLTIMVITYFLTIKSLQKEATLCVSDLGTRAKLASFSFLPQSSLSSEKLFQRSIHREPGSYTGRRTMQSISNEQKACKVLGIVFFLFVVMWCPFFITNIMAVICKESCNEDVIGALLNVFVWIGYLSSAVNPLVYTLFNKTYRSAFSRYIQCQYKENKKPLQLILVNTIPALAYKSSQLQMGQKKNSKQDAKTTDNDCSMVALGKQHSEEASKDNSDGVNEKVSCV

For `CN1CCN(C2=Nc3ccccc3Oc3ccc(Cl)cc32)CC1` [Loxapine, 2-chloro-11-(4-methylpiperazin-1-yl)dibenzo[b,f][1,4]oxazepine, reference compound], the “number of targets with substantial binding inhibition (higher than 50%)” value [1] was 17, the inhibition at 10 µM [2] was over 50% and the “binding to voltage-gated (KV) potassium channel in the off-target screen” value [3] was “did not measurably bind”. The “ability to perform in the accelerating rotarod test” value [4] was “significantly reduced the ability of the mice to perform”, the AUC(0-inf) ([5]; male, C57BL/6, mouse, ip, read-out: AUC (0-inf)) was 116 ng·h/mL and the AUC(0-t) ([5]; male, C57BL/6, mouse, ip, read-out: AUC(0-tz)) was 105 ng·h/mL. It also gave a CL/F ([5]; male, C57BL/6, mouse, ip, read-out: CL/f (converted)) of 144 mL/min/kg, a Cmax ([5]; male, C57BL/6, mouse, ip, read-out: Cmax) of 41.6 ng/mL and a Vd/F ([5]; male, C57BL/6, mouse, ip, read-out: Vz/f) of 28.8 L/kg. The half-life ([5]; male, C57BL/6, mouse, ip, read-out: t1/2z (terminal elimination half-life) (converted)) was 2.3 h, the Tmax ([5]; male, C57BL/6, mouse, ip, read-out: tmax) was 0.25 h and the “% AUCextra” value [5] was 9.2%. The Cz [5] was 3.2 ng/mL, the tz [5] was 8 h and the “ability to perform in the vertical pole test” value [6] was “significantly reduced the ability of the mice to perform”. For the same compound, the “chloroquine-induced scratching behavior of wildtype mice” value [7] was “significantly alleviated”, the “scratching behavior in Slack knockout mice” value [7] was “did not affect” and the inhibition at 10 µM [8] was over 50%. For the same compound, the inhibition at 10 µM [9] was over 50%, the inhibition at 10 µM [10] was over 50% and the “binding to hERG potassium channel in the off-target screen” value [11] was “did not measurably bind”.
